# Reference: EP1016409B1, “FREEZE DRIED COMPOSITION COMPRISING GLYCOSPHINGOLIPIDS” (KIRIN BEER KABUSHIKI KAISHA, priority 1997, dated 1998)
# Columns and labels:
# Format in all cases: physicochemical
# [1] = Optimal formulation: re-solubility after storage; details: lyophilized, KRN7000 200 µg/ml, Polysorbate 20 0.5%
# Protocol: (§1) First, Polysorbate 20 was dissolved in distilled water in a concentration of 0.5%, and sucrose and histidine or sodium deoxycholate in such concentrations listed on Table 11. Next, 20 mg of the active component (KRN7000) was weighed and stirred in 100 ml of the solvents in a heated bath to 80°C for 20 minutes in order to form a solution. After cooling with running water, the mixture was filtered through a 0.22 µm filter, and transparent colorless glass vials having a volume of 5 ml were charged with a 1 ml portion of each of a variety of solutions thus obtained and subjected to lyophilization. Lyophilization was carried out under the condition of preliminary freezing at -40°C for 2 hours and drying at -20°C for 24 hours, 10°C for 12 hours, and finally at 25°C for 5 hours to give the lyophilized product. The degree of vacuum was set at 0.1 Torr or less during drying step.
# After the lyophilization step, the lyophilized composition thus obtained was stored at 25°C or 50°C. After storage at 25°C for 2 months or at 50°C for 2 weeks, the lyophilized composition was reconstituted in 1 ml of distilled water for injection, left standing for 30 minutes, and solubility was judged when the foams generated on reconstitution disappeared. The samples judged to be solution after storage at 25°C for 2 months were further stored, and judged again of their solubility after storage for 4 months.
# (§2) The solubility was judged by cleaning the outside of the vial and placing it beneath the white light source in a darkroom for observation with naked eye at the position of a luminous intensity of about 5,000 lux. When the sample was clear with no precipitates, it was judged that the active component was dissolved.
# [2] = Selection of a solvent for the active component: solubility judged by naked eye
# Protocol: First, […] of the active component (KRN7000) was weighed and stirred in 100 ml of a variety of solvents (Table 3) in a heated bath to 80°C for 20 minutes in order to form a solution having a concentration of 10 µg/ml. With respect to the solvents which were judged to have successfully dissolved 10 µg/ml of the active component, dissolution was further tried in the same manner as above in order to form a solution having a concentration of 100 µg/ml. With respect to the solvents which were judged to have successfully dissolved 100 µg/ml of the active component, dissolution was further tried in the same manner as above in order to form a solution having a concentration of 200 µg/ml. After cooling with running water, the solubility of the component was judged.
# The solubility of the component was judged by the test described below. First, transparent colorless glass vials having a volume of 5 ml were charged with about 1.5 ml portion of each sample and sealed up. The vial was cleaned outside and placed beneath the white light source in a darkroom for observation with naked eye at the position of a luminous intensity of about 5,000 lux. When the sample was clear with no precipitates, it was judged that the active component was dissolved.
# [3] = Lyophilized preparations with Polysorbate 20 alone: re-solubility immediately after lyophilization; details: KRN7000 200 µg/ml, no excipient, reconstituted in 1 ml distilled water for injection
# Protocol: as §1, with “Next,” for “First, Polysorbate 20 was dissolved in distilled water in a concentration of 0.5%, and sucrose and histidine or sodium deoxycholate in such concentrations listed on Table 11. Next,”, “Polysorbate solutions having a variety of concentrations” for “solvents”, “solutions” for “solutions thus obtained”, “lyophilizaiton.” for “lyophilization.”
# After the lyophilization step, the lyophilized composition was reconstituted in 1 ml of distilled water for injection, left standing for 30 minutes, and solubility was judged when the foams generated on reconstituiton disappeared.
# as §2
smiles,measurement,setting,value
"CCCCCCCCCCCCCCCCCCCCCCCCCC(=O)N[C@@H](CO[C@H]1O[C@H](CO)[C@H](O)[C@H](O)[C@H]1O)[C@H](O)[C@H](O)CCCCCCCCCCCCCC [KRN7000, (2S,3S,4R)-1-(α-D-galactopyranosyloxy)-2-hexacosanoylamino-3,4-octadecanediol]",Re-solubility after storage (by naked eye),"[1]; Sucrose 1.1%, Histidine, 4%, 50°C, 2 weeks",+ (+ not dissolved (or deposited))
same,Re-solubility after storage (by naked eye),"[1]; Sucrose 3.1%, Histidine, 3%, 50°C, 2 weeks",- (- dissolved)
same,Re-solubility after storage (by naked eye),"[1]; Sucrose 3.2%, Histidine, 2%, 50°C, 2 weeks",- (- dissolved)
same,Re-solubility after storage (by naked eye),"[1]; Sucrose 4.8%, Sodium deoxycholate, 0.2%, 25°C, 2 months",+ (+ not dissolved (or deposited))
same,Re-solubility after storage (by naked eye),"[1]; Sucrose 4.8%, Sodium deoxycholate, 0.5%, 25°C, 2 months",- (- dissolved)
same,Re-solubility after storage (by naked eye),"[1]; Sucrose 4.8%, Sodium deoxycholate, 0.5%, 25°C, 4 months",- (- dissolved)
same,Re-solubility after storage (by naked eye),"[1]; Sucrose 4.8%, Sodium deoxycholate, 1%, 25°C, 2 months",- (- dissolved)
same,Re-solubility after storage (by naked eye),"[1]; Sucrose 4.8%, Sodium deoxycholate, 1%, 25°C, 4 months",- (- dissolved)
same,Re-solubility after storage (by naked eye),"[1]; Sucrose 4.8%, Sodium deoxycholate, 2%, 25°C, 2 months",- (- dissolved)
same,Re-solubility after storage (by naked eye),"[1]; Sucrose 4.8%, Sodium deoxycholate, 2%, 25°C, 4 months",- (- dissolved)
same,Re-solubility after storage (by naked eye),"[1]; Sucrose 5.0%, Histidine, 2%, 50°C, 2 weeks",- (- dissolved)
same,Re-solubility after storage (by naked eye),"[1]; Sucrose 5.1%, Histidine, 1%, 50°C, 2 weeks",- (- dissolved)
same,Re-solubility after storage (by naked eye),"[1]; Sucrose 6.9%, Histidine, 1%, 50°C, 2 weeks",- (- dissolved)
same,Re-solubility after storage (by naked eye),"[1]; Sucrose 7.9%, Histidine, 0.5%, 50°C, 2 weeks",+ (+ not dissolved (or deposited))
same,Re-solubility after storage (by naked eye),"[1]; Sucrose 9.6%, Histidine, 2%, 50°C, 2 weeks",- (- dissolved)
same,Re-solubility after storage (by naked eye),"[1]; Sucrose 9.6%, Sodium deoxycholate, 0.2%, 25°C, 2 months",+ (+ not dissolved (or deposited))
same,Re-solubility after storage (by naked eye),"[1]; Sucrose 9.6%, Sodium deoxycholate, 0.5%, 25°C, 2 months",- (- dissolved)
same,Re-solubility after storage (by naked eye),"[1]; Sucrose 9.6%, Sodium deoxycholate, 0.5%, 25°C, 4 months",- (- dissolved)
same,Re-solubility after storage (by naked eye),"[1]; Sucrose 9.6%, Sodium deoxycholate, 1%, 25°C, 2 months",- (- dissolved)
same,Re-solubility after storage (by naked eye),"[1]; Sucrose 9.6%, Sodium deoxycholate, 1%, 25°C, 4 months",- (- dissolved)
same,Re-solubility after storage (by naked eye),"[1]; Sucrose 9.6%, Sodium deoxycholate, 2%, 25°C, 2 months",- (- dissolved)
same,Re-solubility after storage (by naked eye),"[1]; Sucrose 9.6%, Sodium deoxycholate, 2%, 25°C, 4 months",- (- dissolved)
same,Re-solubility after storage (by naked eye),"[1]; Sucrose 19.2%, Sodium deoxycholate, 0.1%, 25°C, 2 months",+ (+ not dissolved (or deposited))
same,Re-solubility after storage (by naked eye),"[1]; Sucrose 19.2%, Sodium deoxycholate, 0.2%, 25°C, 2 months",+ (+ not dissolved (or deposited))
same,Re-solubility after storage (by naked eye),"[1]; Sucrose 19.2%, Sodium deoxycholate, 0.5%, 25°C, 2 months",+ (+ not dissolved (or deposited))
same,Re-solubility after storage (by naked eye),"[1]; Sucrose 19.2%, Sodium deoxycholate, 1%, 25°C, 2 months",+ (+ not dissolved (or deposited))
same,Re-solubility after storage (by naked eye),"[1]; Sucrose 19.2%, Sodium deoxycholate, 2%, 25°C, 2 months",+ (+ not dissolved (or deposited))
same,Judgment of solubility (by naked eye),"[2]; solvent 0.5% Cremophor, KRN7000 10 µg/ml",+ (+ not dissolved (or deposited))
same,Judgment of solubility (by naked eye),"[2]; solvent 0.5% HCO 50, KRN7000 10 µg/ml",+ (+ not dissolved (or deposited))
same,Judgment of solubility (by naked eye),"[2]; solvent 0.5% HCO 60, KRN7000 10 µg/ml",+ (+ not dissolved (or deposited))
same,Judgment of solubility (by naked eye),"[2]; solvent 0.5% Polyoxamer 188, KRN7000 10 µg/ml",+ (+ not dissolved (or deposited))
same,Judgment of solubility (by naked eye),"[2]; solvent 0.5% Polysorbate 20, KRN7000 10 µg/ml",- (- dissolved)
same,Judgment of solubility (by naked eye),"[2]; solvent 0.5% Polysorbate 20, KRN7000 100 µg/ml",- (- dissolved)
same,Judgment of solubility (by naked eye),"[2]; solvent 0.5% Polysorbate 20, KRN7000 200 µg/ml",- (- dissolved)
same,Judgment of solubility (by naked eye),"[2]; solvent 0.5% Polysorbate 80, KRN7000 10 µg/ml",- (- dissolved)
same,Judgment of solubility (by naked eye),"[2]; solvent 0.5% Polysorbate 80, KRN7000 100 µg/ml",+ (+ not dissolved (or deposited))
same,Judgment of solubility (by naked eye),"[2]; solvent 1N HCl, KRN7000 10 µg/ml",+ (+ not dissolved (or deposited))
same,Judgment of solubility (by naked eye),"[2]; solvent 1N NaOH, KRN7000 10 µg/ml",+ (+ not dissolved (or deposited))
same,Judgment of solubility (by naked eye),"[2]; solvent Distilled water, KRN7000 10 µg/ml",+ (+ not dissolved (or deposited))
same,Judgment of solubility (by naked eye),"[2]; solvent Ethanol, KRN7000 10 µg/ml",- (- dissolved)
same,Judgment of solubility (by naked eye),"[2]; solvent Ethanol, KRN7000 100 µg/ml",- (- dissolved)
same,Judgment of solubility (by naked eye),"[2]; solvent Ethanol, KRN7000 200 µg/ml",- (- dissolved)
same,Judgment of solubility (by naked eye),"[2]; solvent Glycerol, KRN7000 10 µg/ml",- (- dissolved)
same,Judgment of solubility (by naked eye),"[2]; solvent Glycerol, KRN7000 100 µg/ml",+ (+ not dissolved (or deposited))
same,Judgment of solubility (by naked eye),"[2]; solvent Macrogol 400, KRN7000 10 µg/ml",- (- dissolved)
same,Judgment of solubility (by naked eye),"[2]; solvent Macrogol 400, KRN7000 100 µg/ml",+ (+ not dissolved (or deposited))
same,Judgment of solubility (by naked eye),"[2]; solvent Propylene glycol, KRN7000 10 µg/ml",- (- dissolved)
same,Judgment of solubility (by naked eye),"[2]; solvent Propylene glycol, KRN7000 100 µg/ml",+ (+ not dissolved (or deposited))
same,Re-solubility immediately after lyophilization (by naked eye),[3]; Polysorbate 20 0.5%,+ (+ not dissolved (or deposited))
same,Re-solubility immediately after lyophilization (by naked eye),[3]; Polysorbate 20 1.0%,+ (+ not dissolved (or deposited))
same,Re-solubility immediately after lyophilization (by naked eye),[3]; Polysorbate 20 2.0%,+ (+ not dissolved (or deposited))
